Assay [1] relates to Hep-G2 cells. The assay can be described thus: HDL uptake by Hep-G2 cells (125I-labelled HDL), proxy for HDL-raising activity. The conditions noted are these: compared with niacin. It is filed as cell-based. How it is done: • Split HepG2 cells in 24 well plates 2˜3 days prior to niacin treatment, 0.5 mL complete DMEM media is added per well • Cells were pre-incubated with niacin (1 mM) for 24˜48 h • Wash HepG2 cells 3 times with PBS • Incubate HepG2 cells in […] medium C(DMEM containing 5 mg/mL fatty acid free BSA), containing ^125I-labelled HDL ([…] with specificity ofo 300-500 cpm/ng HDL protein. For 16 h • Aspirate the media and wash the cells with 0.5 mL of 0.1 mg/mL BSA-PBS twice, and with PBS twice • Cells were digested in […] of 1 N NaOH at room temperature overnight • […] of cell lysate was used for gamma-counting • […] of cell lysate was used for protein assay by BCA method • HDL uptake activity is expressed as “cpm of ^125I-HDL uptake/mg of cell protein.

The subject of assay [2] is THP-1 macrophages. The assay can be described thus: PGD2 release by THP-1 macrophages, proxy for flush inducing activity. The conditions noted are these: compared with niacin. It is filed as cell-based. As to the method: THP-1 cells were grown in RPMI complete media • 2×10^6 cells/well in 24 well flask were seeded in serum free media containing […] of PMA. Cells were allowed to differentiate into macrophages for 12 hours • The media was replaced with complete RPMI media and incubation continued for 5 hours • After incubation, media was aspirated and cells were treated with niacin and niacin analogs in 1 mL of serum free RPMI media. • Incubated for 30 min. […] of media was collected, PGD2 secreted was derivitized into stable MOX derivative. • PGD2 in the sample was assayed by using PGD2 assay kit from Cayman chemicals. Incorporation By Reference

For assay [3] the following is noted: humans, daily oral doses of 2-3 g; cited from earlier work.

Molecules are shown by their SMILES.

With `O=C(O)C/C=C/c1cccnc1` [Compound 2035, 4-pyridin-3-yl-but-3-enoic acid], in assay [1], the “reduction of HDL uptake / HDL-raising activity relative to niacin” value is listed as “essentially as well as niacin”. Also, in assay [2], the “induction of PGD2 release / flush inducing activity relative to niacin” value is “very much less ability to induce PDG2 release”.

Take `O=C(O)c1cccnc1` [niacin]: the “effect on Lp(a)” value in assay [3] is reported as “reduce Lp(a)”.

The values above are taken from patent publication US9193708B2, “Non-flushing niacin analogues, and methods of use thereof” (Trustees of Tufts College, priority 2006, dated 2015).
